Source: patent US20260325561A1, “4'-SUBSTITUTED NUCLEOSIDES AND NUCLEOTIDES AS ANTIVIRAL AGENTS” (THE SCRIPPS RESEARCH INSTITUTE, priority 2023, published 2026)

Assays:
DENV-2 = test: microbe, parasite or virus in culture; type: cell-based, DENV-2 16681; conditions: for SI (selectivity), DENV-2 HepG2 assay: SI=CC50/EC50
[1] = cited from earlier work
DENV = conditions: cited from earlier work
SARS-CoV-2 = test: microbe, parasite or virus in culture; type: cell-based, SARS-CoV-2 strain USA-WA1/2020
[2] = Cytotoxicity from screening; type: cell-based
COXV-B3 = test: Antiviral activity against COXV-B3; type: cell-based, COXV-B3 HA 201933; conditions: COXV-B3, FIG. 1
Description: (§1) All other antiviral assays were run at Utah State/Justin Julander through NIAID Preclinical Services. The following virus strains and cell lines were used:
(§2) Compounds were added to cells prior to addition of virus at an appropriate MOI to cause visible CPE. […] For compounds with an SI.5, a virus yield reduction assay was conducted, where supernatant collected from the CPE assay was titered for virus. The EC90 was calculated as the amount of compound needed to reduce the virus titer by 1 log 10.

HCMV = test: HCMV/HFF antiviral assay; type: cell-based; conditions: Human betaherpesvirus 5, HFF
in vitro [3] = conditions: human, mrc5 cells
YFV = test: microbe, parasite or virus in culture; type: cell-based, YFV strain 17D
in vitro [4] = conditions: human, hela-ace2 cells
ZIKV = test: microbe, parasite or virus in culture; type: cell-based, ZIKV MR766
SARS-CoV-1 = type: cell-based
in vitro [5] = conditions: human, hepg2 cells
HRV 14 = test: microbe, parasite or virus in culture; type: cell-based, Human Rhinovirus 14 strain 1059
Cytotoxicity, HFF = type: cell-based; conditions: human, hff cells; read-out: HCMV/HFF CC50
in vitro [6] = conditions: human, h1 hela cells
RSV A2 = test: microbe, parasite or virus in culture; type: cell-based
CHIKV = test: microbe, parasite or virus in culture; type: cell-based, CHIKV strain 181/25
Polio PV-3 = type: cell-based, PV-3 WM-3
MERS-CoV = type: cell-based, MERS-CoV EMC
Flu A H1N1 = test: Antiviral activity against Flu A H1N1; type: cell-based, Flu A H1N1 California/07/2009; conditions: Flu A H1N1, FIG. 1
Description: as §1, §2

in vitro [7] = conditions: human, hep2 cells
MEV = test: Antiviral activity against MEV; type: cell-based, MEV CC; conditions: FIG. 1
Description: as §1, §2

HCoV-OC43 = test: microbe, parasite or virus in culture; type: cell-based, Human Coronavirus
HCoV-229E = test: microbe, parasite or virus in culture; type: cell-based
Polio PV-1 = type: cell-based, PV-1 CHAT
HRV 16 = test: microbe, parasite or virus in culture; type: cell-based, Human Rhinovirus 16 strain 11757
in vitro [8] = conditions: human, hct-8 cells

Compound: C#C[C@@]1(O)[C@H](O)[C@@H](CO)O[C@H]1n1ccc2c(N)ncnc21 [NITD-008, reference compound]
- SI (selectivity), DENV-2 HepG2 assay (DENV-2): 52
- selectivity compared to tubercidin (DENV-2; DENV-2 HepG2 assay, FIG. 1): improved selectivity compared to tubercidin
- two-week tox study outcome [1]: failed
- efficacy in DENV-infected mouse model (DENV): good efficacy

Compound: Nc1ncnc2c1ccn2[C@@H]1O[C@H](CO)[C@@H](O)[C@H]1O [Tubercidin, reference compound]
- antiviral potency against DENV (DENV-2; DENV, screening): high antiviral potency
- SI (selectivity), DENV-2 HepG2 assay (DENV-2): 2
- antiviral potency against SARS-CoV-2 (SARS-CoV-2; SARS-CoV-2, screening): high antiviral potency
- cytotoxicity from screening [2]: significant cytotoxicity

Compound: Nc1ncnc2c1ccn2[C@@H]1O[C@](F)(CO)[C@@H](O)[C@H]1O [Example 1, (2S,3S,4R,5R)-5-(4-amino-7H-pyrrolo[2,3-d]pyrimidin-7-yl)-2-fluoro-2-(hydroxymethyl)tetrahydrofuran-3,4-diol]
- efficacy vs RDV parent nucleosides and N-hydroxycytidine, COXV-B3 (COXV-B3): more efficacious than RDV parent nucleosides and N-hydroxycytidine
- EC50 (HCMV): 1000 to 10000 nM
- CC50 (in vitro [3]): 10000 to 99000 nM
- efficacy vs RDV parent nucleosides and N-hydroxycytidine, YFV (YFV): more efficacious than RDV parent nucleosides and N-hydroxycytidine
- EC50 (YFV; Yellow fever virus, HepG2, 24 h, read-out: YFV / HepG2 EC50): < 100 nM
- activities and selectivity vs known compounds with the same MOA, DENV (DENV-2; DENV): improved activities and selectivity
- activities and selectivity compared to tubercidin and NITD-008 (DENV-2; DENV2 HepG2 assay): improved activities and selectivity compared to tubercidin and NITD-008
- efficacy vs RDV parent nucleosides and N-hydroxycytidine, DENV-2 (DENV-2; DENV-2, FIG. 1): more efficacious than RDV parent nucleosides and N-hydroxycytidine
- EC50 (DENV-2; Dengue virus, DENV2, HepG2, 24 h, read-out: DENV-2 / HepG2 EC50): < 100 nM
- CC50 at 24 h (in vitro [4]): 1000 to 10000 nM
- activities and selectivity vs known compounds with the same MOA, SARS-CoV-2 (SARS-CoV-2; SARS-CoV-2): improved activities and selectivity
- efficacy vs RDV parent nucleosides and N-hydroxycytidine, SARS-CoV-2 (SARS-CoV-2; SARS-CoV-2, FIG. 1): more efficacious than RDV parent nucleosides and N-hydroxycytidine
- EC50 (SARS-CoV-2; Severe acute respiratory syndrome coronavirus 2, HeLa-ACE2, 24 h, read-out: SARS-CoV-2 / HeLa-ACE2 EC50): < 100 nM
- efficacy vs RDV parent nucleosides and N-hydroxycytidine, ZIKV (ZIKV; ZIKV, FIG. 1): more efficacious than RDV parent nucleosides and N-hydroxycytidine
- EC50 (ZIKV; Zika virus, HepG2, 24 h, read-out: ZIKV / HepG2 EC50): < 100 nM
- efficacy vs RDV parent nucleosides and N-hydroxycytidine, SARS-CoV-1 (SARS-CoV-1): more efficacious than RDV parent nucleosides and N-hydroxycytidine
- CC50 at 72 h (in vitro [5]): 1000 to 10000 nM
- efficacy vs RDV parent nucleosides and N-hydroxycytidine, HRV14 (HRV 14; HRV14, FIG. 1): more efficacious than RDV parent nucleosides and N-hydroxycytidine
- EC50 (HRV 14; Rhinovirus B, H1-HeLa, 48 h, read-out: HRV / H1 HeLa B 14 EC50): 100 to 1000 nM
- CC50 (Cytotoxicity, HFF): 1000 to 10000 nM
- CC50 (in vitro [6]): 1000 to 10000 nM
- efficacy vs RDV parent nucleosides and N-hydroxycytidine, RSV A2 (RSV A2; RSV A2, FIG. 1): more efficacious than RDV parent nucleosides and N-hydroxycytidine
- EC50 (RSV A2; human respiratory syncytial virus, HEp-2, 72 h, read-out: RSV A2 / Hep2 EC50): < 100 nM
- EC50 (CHIKV; Chikungunya virus, HepG2, 24 h, read-out: CHIKV / HepG2 EC50): < 100 nM
- efficacy vs RDV parent nucleosides and N-hydroxycytidine, CHIKV (CHIKV; alphavirus CHIKV, FIG. 1): more efficacious than RDV parent nucleosides and N-hydroxycytidine
- efficacy vs RDV parent nucleosides and N-hydroxycytidine, Polio PV-3 (Polio PV-3): more efficacious than RDV parent nucleosides and N-hydroxycytidine
- efficacy vs RDV parent nucleosides and N-hydroxycytidine, MERS-CoV (MERS-CoV): more efficacious than RDV parent nucleosides and N-hydroxycytidine
- efficacy vs RDV parent nucleosides and N-hydroxycytidine, Flu A H1N1 (Flu A H1N1): more efficacious than RDV parent nucleosides and N-hydroxycytidine
- CC50 (in vitro [7]): 1000 to 10000 nM
- efficacy vs RDV parent nucleosides and N-hydroxycytidine, MEV (MEV): more efficacious than RDV parent nucleosides and N-hydroxycytidine
- EC50 (HCoV-OC43; Betacoronavirus 1, OC43, HCT-8, 48 h, read-out: HCoV-OC43/HCT-8 EC50): 100 to 1000 nM
- efficacy vs RDV parent nucleosides and N-hydroxycytidine, HCoV-OC43 (HCoV-OC43; HCoV-OC43, FIG. 1): more efficacious than RDV parent nucleosides and N-hydroxycytidine
- efficacy vs RDV parent nucleosides and N-hydroxycytidine, HCoV-229E (HCoV-229E; HCoV-229E, FIG. 1): more efficacious than RDV parent nucleosides and N-hydroxycytidine
- EC50 (HCoV-229E; Human coronavirus 229E, MRC5, 120 h, read-out: HCoV-229E/MRC5 EC50): 100 to 1000 nM
- efficacy vs RDV parent nucleosides and N-hydroxycytidine, Polio PV-1 (Polio PV-1): more efficacious than RDV parent nucleosides and N-hydroxycytidine
- efficacy vs RDV parent nucleosides and N-hydroxycytidine, HRV16 (HRV 16; HRV16, FIG. 1): more efficacious than RDV parent nucleosides and N-hydroxycytidine
- EC50 (HRV 16; Rhinovirus A, H1-HeLa, 48 h, read-out: HRV / H1 HeLa A16 EC50): 100 to 1000 nM
- CC50 (in vitro [8]): 1000 to 10000 nM
